Measurements taken from patent US20060009478A1, “Methods for the treatment of back pain” (priority 2003, published 2006).

Test system: patients with moderate to severe chronic pain due to osteoarthritis of the hip or knee
Test: WOMAC Osteoarthritis Index (pain, stiffness, physical function subscales, total score), 3-week osteoarthritis study
Format: in vivo, human
Conditions: LOCF; for WOMAC osteoarthritis physical function subscale, actual value, mean / WOMAC osteoarthritis physical function subscale, actual value, median / WOMAC osteoarthritis stiffness subscale, actual value, mean / WOMAC osteoarthritis stiffness subscale, actual value, median / WOMAC osteoarthritis total score, actual value, mean / WOMAC osteoarthritis total score, actual value, median / WOMAC osteoarthritis pain subscale, actual value, mean / WOMAC osteoarthritis pain subscale, actual value, median: intent to treat population
Excerpt: Back pain can be associated with an arthritic condition or inflammation associated with chronic conditions. […] The methods comprise administering to a human subject an amount of an opioid antagonist or the combination of an opioid agonist and an opioid antagonist that is effective to enhance potency of the agonist and/or to alleviate one or more symptoms or signs of an arthritic condition or inflammation associated with a chronic condition, including for example, as measured by a suitable index, scale or measure. The attenuation of one or more symptoms or signs of an arthritic condition or of inflammation associated with a chronic condition may be measured on the WOMAC Osteoarthritis Index or one of its subscales (in other words, the pain, stiffness, or physical function subscales of the WOMAC Osteoarthritis Index). Any suitable version of the WOMAC OA Index may be used, including, for example, Version 3.0 or Version 3.1. Any suitable scale may be used as well. The WOMAC OA Index is available in Likert and Visual Analog scaled formats, either of which may be employed in the present methods. […] The WOMAC values represent a subjective surrogate marker. Alternatively or additionally, the attenuation of one or more symptoms or signs may be measured on another suitable index, scale or measure, such the Australian/Canadian (AUSCAN) Osteoarthritis Hand Index or the Osteoarthritis Global Index (OGI). The AUSCAN 3.1 Index and User Guide are currently available from http://www.womac.org/contact/index.cfm, as are the WOMAC 3.1 Osteoarthritis Index and User Guide. Another suitable measure of attenuation is the Definition of Improvement in Rheumatoid Arthritis described in Felson et al., Arthritis & Rheumatism 38:727-735 (1995) incorporated herein by reference. This measure, which also may be designated as the ACR (American College of Rheumatology) 20 improvement, is a composite defined as both improvement of 20% in the number of tender and number of swollen joints, and a 20% improvement in three of the following five: patient global, physician global, patient pain, patient function assessment, and C-reactive protein (CRP). Another suitable measure is described by Paulus et al., Arthritis & Rheumatism 33:477-484 (1990) which is incorporated herein by reference. Paulus et al. provides a definition of improvement based on a set of measures that discriminate between active second-line drug treatment and placebo. These include a 20% improvement in morning stiffness, erythrocyte sedimentation rate (ESR), joint tenderness score, and joint swelling score and improvement by at least 2 grades on a 5-grade scale (or from grade 2 to grade 1) for patient and physician global assessments of current disease severity. Current disease severity can be measured in a variety of ways, including patient or physician global assessments, patient or physician assessments of joint tenderness, joint swelling stiffness, pain, or physical function, cytokine levels, B-cell or T-cell subtype ratios, erythrocyte sedimentation rate (ESR), or C-reactive protein. Suitable measures of attenuation of one or more symptoms or signs, of inhibiting the progression of an arthritic condition or chronic condition, or of reversing tissue or cellular damage include measuring current disease severity. Other indexes, definitions, measures, or scales may also be used for measuring attenuation of one or more symptoms or signs, inhibition of progression, or reversal of tissue or cellular damage.
A daily diary was to be utilized to record overall pain intensity (PI) and other signs and symptoms.

SMILES: COc1ccc2c3c1O[C@H]1C(=O)CC[C@@]4(O)[C@@H](C2)N(C)CC[C@]314 [OXY QID, oxycodone]
- WOMAC osteoarthritis pain subscale, actual value at Week 1, mean (ITT): 263.2
- WOMAC osteoarthritis pain subscale, actual value at Week 1, median (ITT): 279.0
- WOMAC osteoarthritis physical function subscale, actual value, mean (Week 1): 891.8
- WOMAC osteoarthritis physical function subscale, actual value, median (Week 1): 930.5
- WOMAC osteoarthritis stiffness subscale, actual value, mean (Week 1): 120.3
- WOMAC osteoarthritis stiffness subscale, actual value, median (Week 1): 129.5
- WOMAC osteoarthritis total score, actual value, mean (Week 1): 1275.3
- WOMAC osteoarthritis total score, actual value, median (Week 1): 1312.5
- WOMAC osteoarthritis pain subscale, actual value, mean (Week 2): 245.0
- WOMAC osteoarthritis pain subscale, actual value, median (Week 2): 227.5
- WOMAC osteoarthritis physical function subscale, actual value, mean (Week 2): 847.6
- WOMAC osteoarthritis physical function subscale, actual value, median (Week 2): 880.0
- WOMAC osteoarthritis stiffness subscale, actual value, mean (Week 2): 111.4
- WOMAC osteoarthritis stiffness subscale, actual value, median (Week 2): 119.5
- WOMAC osteoarthritis total score, actual value, mean (Week 2): 1204.0
- WOMAC osteoarthritis total score, actual value, median (Week 2): 1222.5
- WOMAC osteoarthritis pain subscale, actual value, mean (Week 3): 238.7
- WOMAC osteoarthritis pain subscale, actual value, median (Week 3): 225.0
- WOMAC osteoarthritis physical function subscale, actual value, mean (Week 3): 820.0
- WOMAC osteoarthritis physical function subscale, actual value, median (Week 3): 867.0
- WOMAC osteoarthritis stiffness subscale, actual value, mean (Week 3): 106.3
- WOMAC osteoarthritis stiffness subscale, actual value, median (Week 3): 109.0
- WOMAC osteoarthritis total score, actual value, mean (Week 3): 1164.9
- WOMAC osteoarthritis total score, actual value, median (Week 3): 1191.0
